Measured values published in patent US20210205223A1, “PROPELLANT-FREE FORMULATION FOR INHALATION” (priority 2020, published 2021).
Where a name gives a salt, the structure may show the parent alone.

Conditions: solution of sample 1 from soft mist inhaler; ACI 28.3 L/minute, ambient temperature, RH 90%
Procedure: The aerodynamic particle size distribution was determined using an Andersen Scale Impactor (ACI). The soft mist inhaler was held close to the ACI inlet until no aerosol was visible. The flow rate of the ACI was set to 28.3 L/minute and was operated under ambient temperature and a relative humidity (RH) of 90%.
Fractions of the dose were deposited at different stages of the ACI, in accordance with the particle size of the fraction. Each fraction was washed from the stage and analyzed using HPLC.
The particle size distribution was expressed in terms of mass median aerodynamic diameter (MMAD) and Geometric Standard Deviation (GSD).

Row | Compound | MMAD (mass median aerodynamic diameter)
1 | COc1ccc(CC(C)NCC(O)c2ccc(O)c(NC=O)c2)cc1 (centres unmarked) [Formoterol fumarate, N-[2-hydroxy-5-(1-hydroxy-2-((2-(4-methoxyphenyl)-1-methylethy-1)amino)-ethyl)phenyl] formamide] | 4.49 μm
2 | C[N+]1(C)CCC(OC(=O)C(O)(c2ccccc2)C2CCCC2)C1.[Br-] (centres unmarked) [Glycopyrronium bromide] | 4.91 μm
